Assay results published in US9938273B2 (Plexxikon Inc., priority 2015, dated 2018).

Columns and labels:
FLT3-ITD = target: T1, FLT3-ITD (Homo sapiens, UniProt P36888); assay: AlphaScreen kinase assay with recombinant enzyme, FLT3-ITD; assay type: biochemical; details: 8pt; read-out: FLT3_ITD 8pt: IC50
T1 sequence (P36888 1-993): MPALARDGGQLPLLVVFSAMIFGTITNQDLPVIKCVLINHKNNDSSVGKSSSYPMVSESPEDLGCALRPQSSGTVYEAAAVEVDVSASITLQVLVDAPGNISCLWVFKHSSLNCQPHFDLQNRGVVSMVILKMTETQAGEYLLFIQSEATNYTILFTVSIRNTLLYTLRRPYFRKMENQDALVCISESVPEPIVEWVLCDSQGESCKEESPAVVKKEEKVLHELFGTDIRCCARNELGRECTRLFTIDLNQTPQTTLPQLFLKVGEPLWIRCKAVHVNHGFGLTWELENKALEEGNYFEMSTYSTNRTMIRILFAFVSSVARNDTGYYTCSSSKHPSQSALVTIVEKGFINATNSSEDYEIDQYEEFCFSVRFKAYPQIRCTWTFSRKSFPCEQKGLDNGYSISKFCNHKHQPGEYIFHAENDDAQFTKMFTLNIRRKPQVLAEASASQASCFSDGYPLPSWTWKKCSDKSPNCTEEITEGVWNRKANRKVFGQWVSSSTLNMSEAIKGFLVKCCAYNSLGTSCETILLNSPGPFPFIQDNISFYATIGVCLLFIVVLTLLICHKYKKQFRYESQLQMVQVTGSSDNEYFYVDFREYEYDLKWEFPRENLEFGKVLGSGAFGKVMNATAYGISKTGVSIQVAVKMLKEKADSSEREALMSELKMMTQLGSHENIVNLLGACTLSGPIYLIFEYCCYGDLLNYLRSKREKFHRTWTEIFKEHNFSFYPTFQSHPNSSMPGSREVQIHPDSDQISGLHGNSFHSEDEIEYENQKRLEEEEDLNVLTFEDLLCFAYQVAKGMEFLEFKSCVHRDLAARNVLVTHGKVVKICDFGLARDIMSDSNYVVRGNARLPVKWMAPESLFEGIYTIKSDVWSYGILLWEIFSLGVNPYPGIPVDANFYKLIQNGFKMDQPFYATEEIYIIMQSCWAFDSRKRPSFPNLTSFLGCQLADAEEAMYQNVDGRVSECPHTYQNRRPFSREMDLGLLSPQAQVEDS
How it was run: (§1)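 AlphaScreen, biotinylated poly(Glu4-Tyr) 30 nM final; PY20 anti-pTyr acceptor and streptavidin donor beads 10 μg/mL; IC50 final conc. 10 μM (FLT3-D835Y, FLT3-ITD) / 100 μM (c-KIT); detection incubations 20 + 60 min RT; 580 nm emission.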

c-KIT = target: T2, c-KIT (Homo sapiens, UniProt P10721); assay: AlphaScreen kinase assay with recombinant enzyme, c-KIT; assay type: biochemical; details: 100ATP, 8pt, GMean
T2 construct: purchased Millipore 14-559K
T2 sequence (P10721 26-976): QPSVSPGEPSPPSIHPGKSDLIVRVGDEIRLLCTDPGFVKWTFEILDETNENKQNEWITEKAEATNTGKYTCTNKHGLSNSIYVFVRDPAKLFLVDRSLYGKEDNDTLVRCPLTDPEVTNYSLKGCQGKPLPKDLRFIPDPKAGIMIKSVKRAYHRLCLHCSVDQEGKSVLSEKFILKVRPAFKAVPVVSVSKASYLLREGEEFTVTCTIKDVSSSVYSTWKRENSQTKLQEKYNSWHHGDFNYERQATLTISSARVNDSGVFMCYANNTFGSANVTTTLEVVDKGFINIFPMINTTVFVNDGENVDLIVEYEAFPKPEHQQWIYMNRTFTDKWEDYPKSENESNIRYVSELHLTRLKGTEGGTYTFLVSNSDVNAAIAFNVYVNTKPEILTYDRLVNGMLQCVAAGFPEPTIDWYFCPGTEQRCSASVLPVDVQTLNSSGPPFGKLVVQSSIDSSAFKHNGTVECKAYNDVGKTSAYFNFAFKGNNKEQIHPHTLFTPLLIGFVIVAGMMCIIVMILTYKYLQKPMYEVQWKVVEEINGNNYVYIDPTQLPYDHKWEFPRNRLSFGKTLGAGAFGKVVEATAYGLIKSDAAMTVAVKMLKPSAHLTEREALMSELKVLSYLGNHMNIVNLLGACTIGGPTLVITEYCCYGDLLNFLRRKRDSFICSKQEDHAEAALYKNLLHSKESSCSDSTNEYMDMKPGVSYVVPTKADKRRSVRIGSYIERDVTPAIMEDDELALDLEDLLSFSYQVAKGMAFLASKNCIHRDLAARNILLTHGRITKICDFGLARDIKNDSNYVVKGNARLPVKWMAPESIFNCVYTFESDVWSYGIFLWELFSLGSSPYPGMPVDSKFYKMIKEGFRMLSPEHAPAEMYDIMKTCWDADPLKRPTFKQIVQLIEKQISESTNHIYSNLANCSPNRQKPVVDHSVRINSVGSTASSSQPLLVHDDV
How it was run: as §1

Compound | IC50 (FLT3-ITD) [µM] | IC50 (c-KIT) [µM]
O=C(c1cccc(-c2cnc3[nH]c(-c4ccccc4)cc3c2)n1)N1CCC(F)(F)CC1 [Compound P-0089, (4,4-difluoro-1-piperidyl)-[6-(2-phenyl-1H-pyrrolo[2,3-b]pyridin-5-yl)-2-pyridyl]methanone] | 0.0001 to 10 | 50 to 100
N[C@H]1CCN(C(=O)c2cc(-c3cnc4[nH]c(-c5ccccc5)cc4c3)ccn2)C1 [Compound P-0046, [(3S)-3-aminopyrrolidin-1-yl]-[4-(2-phenyl-1H-pyrrolo[2,3-b]pyridin-5-yl)-2-pyridyl]methanone] | 0.0001 to 10 | 0.0001 to 10
CCNC(=O)NC1CCN(C(=O)c2cccc(-c3cnc4[nH]c(-c5ccccc5)cc4c3)n2)CC1 [Compound P-0031, 1-ethyl-3-[1-[6-(2-phenyl-1H-pyrrolo[2,3-b]pyridin-5-yl)pyridine-2-carbonyl]-4-piperidyl]urea] | 0.0001 to 10 | 0.0001 to 10
O=C(NC1CCNC1)c1cccc(-c2cnc3[nH]c(-c4ccccc4)cc3c2)n1 (stereo not shown) [Compound P-0045, 6-(2-phenyl-1H-pyrrolo[2,3-b]pyridin-5-yl)-N-pyrrolidin-3-yl-pyridine-2-carboxamide] | 0.0001 to 10 | 0.0001 to 10
N=C(N)N1CCN(C(=O)c2cccc(-c3cnc4[nH]c(-c5ccccc5)cc4c3)n2)CC1 [Compound P-0057, 4-[6-(2-phenyl-1H-pyrrolo[2,3-b]pyridin-5-yl)pyridine-2-carbonyl]piperazine-1-carboxamidine] | 0.0001 to 10 | 0.0001 to 10
COC(=O)C1(C)CCN(C(=O)c2cccc(-c3cnc4[nH]c(-c5ccccc5)cc4c3)n2)CC1 [Compound P-0092, methyl 4-methyl-1-[6-(2-phenyl-1H-pyrrolo[2,3-b]pyridin-5-yl)pyridine-2-carbonyl]piperidine-4-carboxylate] | 0.0001 to 10 | 50 to 100
CNC1CCN(Cc2cccc(-c3cnc4[nH]c(-c5ccccc5)cc4c3)n2)C1 (stereo not shown) [Compound P-0087, N-methyl-1-[[6-(2-phenyl-1H-pyrrolo[2,3-b]pyridin-5-yl)-2-pyridyl]methyl]pyrrolidin-3-amine] | 0.0001 to 10 | 0.0001 to 10
NC1CCN(C(=O)c2cc(-c3cnc4[nH]c(-c5ccccc5)cc4c3)ccn2)CC1 [Compound P-0038, (4-amino-1-piperidyl)-[4-(2-phenyl-1H-pyrrolo[2,3-b]pyridin-5-yl)-2-pyridyl]methanone] | 0.0001 to 10 | 0.0001 to 10
